Experiments:
[1] = molecular target: T1, human OATP2B1 (Homo sapiens, UniProt O94956); conditions: 10 min, 100 μM
T1 sequence (O94956 1-709): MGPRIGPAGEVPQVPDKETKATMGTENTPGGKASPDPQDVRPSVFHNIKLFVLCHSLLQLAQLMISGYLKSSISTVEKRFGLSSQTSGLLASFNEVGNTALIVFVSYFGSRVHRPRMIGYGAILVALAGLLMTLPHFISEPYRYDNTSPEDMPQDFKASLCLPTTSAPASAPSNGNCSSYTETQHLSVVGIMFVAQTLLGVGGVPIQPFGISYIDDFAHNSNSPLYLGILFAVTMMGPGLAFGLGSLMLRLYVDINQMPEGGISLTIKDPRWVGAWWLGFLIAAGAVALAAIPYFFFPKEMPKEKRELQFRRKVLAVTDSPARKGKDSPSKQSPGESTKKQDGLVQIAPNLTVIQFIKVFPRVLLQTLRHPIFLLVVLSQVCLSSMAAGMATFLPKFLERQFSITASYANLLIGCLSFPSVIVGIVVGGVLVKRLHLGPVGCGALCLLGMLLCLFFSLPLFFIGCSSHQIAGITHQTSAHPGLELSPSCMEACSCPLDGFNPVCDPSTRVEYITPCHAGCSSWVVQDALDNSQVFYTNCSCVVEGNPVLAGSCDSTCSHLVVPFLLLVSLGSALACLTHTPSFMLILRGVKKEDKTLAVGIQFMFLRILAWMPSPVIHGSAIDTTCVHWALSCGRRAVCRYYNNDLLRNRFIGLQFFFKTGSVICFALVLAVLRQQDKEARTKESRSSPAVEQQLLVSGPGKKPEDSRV

[2] = molecular target: T2, human PEPT1 (Homo sapiens, UniProt P46059); conditions: 10 min, 100 μM, pH 6
T2 sequence (P46059 1-708): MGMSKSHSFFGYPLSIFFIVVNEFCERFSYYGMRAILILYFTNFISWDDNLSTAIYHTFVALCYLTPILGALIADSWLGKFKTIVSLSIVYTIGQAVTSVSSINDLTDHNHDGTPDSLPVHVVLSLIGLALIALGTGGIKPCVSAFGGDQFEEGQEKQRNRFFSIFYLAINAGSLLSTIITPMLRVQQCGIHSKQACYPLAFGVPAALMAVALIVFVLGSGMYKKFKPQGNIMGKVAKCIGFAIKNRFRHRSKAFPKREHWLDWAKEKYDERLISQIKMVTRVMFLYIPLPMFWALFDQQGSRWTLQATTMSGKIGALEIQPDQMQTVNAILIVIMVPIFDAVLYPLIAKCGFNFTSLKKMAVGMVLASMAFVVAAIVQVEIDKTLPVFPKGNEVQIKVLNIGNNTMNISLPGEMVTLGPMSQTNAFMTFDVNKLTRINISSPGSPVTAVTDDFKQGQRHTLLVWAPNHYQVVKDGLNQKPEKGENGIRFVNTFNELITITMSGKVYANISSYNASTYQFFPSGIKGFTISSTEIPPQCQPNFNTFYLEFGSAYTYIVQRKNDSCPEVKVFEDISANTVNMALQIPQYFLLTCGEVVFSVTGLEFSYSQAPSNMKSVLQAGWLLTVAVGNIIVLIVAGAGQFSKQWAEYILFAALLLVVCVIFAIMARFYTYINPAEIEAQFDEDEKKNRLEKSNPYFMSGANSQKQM

[3] = molecular target: T3, rat Oct3 (Rattus norvegicus, UniProt O88446)
T3 sequence (O88446 1-551): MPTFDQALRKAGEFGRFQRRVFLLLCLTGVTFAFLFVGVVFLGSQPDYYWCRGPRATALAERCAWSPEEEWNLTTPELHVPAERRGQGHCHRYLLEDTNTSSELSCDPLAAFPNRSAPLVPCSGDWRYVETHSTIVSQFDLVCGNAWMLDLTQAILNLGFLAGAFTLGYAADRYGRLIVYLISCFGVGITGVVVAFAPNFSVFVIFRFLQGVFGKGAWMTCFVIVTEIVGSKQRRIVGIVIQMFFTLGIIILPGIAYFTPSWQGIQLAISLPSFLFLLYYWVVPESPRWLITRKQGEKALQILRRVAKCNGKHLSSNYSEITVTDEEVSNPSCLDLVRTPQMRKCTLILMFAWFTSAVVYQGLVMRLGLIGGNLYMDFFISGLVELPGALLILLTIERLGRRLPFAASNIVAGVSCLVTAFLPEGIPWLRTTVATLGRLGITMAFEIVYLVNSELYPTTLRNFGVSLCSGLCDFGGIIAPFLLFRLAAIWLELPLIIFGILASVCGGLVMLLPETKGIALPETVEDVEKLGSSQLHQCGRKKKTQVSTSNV

[4] = molecular target: T4, human OCT3 (Homo sapiens, UniProt O75751)
T4 sequence (O75751 1-556): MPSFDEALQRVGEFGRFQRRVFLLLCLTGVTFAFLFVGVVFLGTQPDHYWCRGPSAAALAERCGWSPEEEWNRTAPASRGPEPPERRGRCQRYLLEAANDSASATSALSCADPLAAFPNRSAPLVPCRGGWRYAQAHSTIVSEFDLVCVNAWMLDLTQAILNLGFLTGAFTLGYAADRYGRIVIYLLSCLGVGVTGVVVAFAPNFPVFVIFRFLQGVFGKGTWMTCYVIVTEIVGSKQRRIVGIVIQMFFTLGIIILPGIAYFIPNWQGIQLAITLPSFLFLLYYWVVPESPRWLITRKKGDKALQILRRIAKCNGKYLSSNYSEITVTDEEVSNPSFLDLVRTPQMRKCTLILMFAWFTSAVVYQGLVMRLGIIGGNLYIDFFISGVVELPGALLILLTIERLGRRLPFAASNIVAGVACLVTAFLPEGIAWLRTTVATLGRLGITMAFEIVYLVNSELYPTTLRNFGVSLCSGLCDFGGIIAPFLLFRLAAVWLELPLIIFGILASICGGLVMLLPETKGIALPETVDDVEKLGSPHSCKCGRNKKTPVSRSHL

[5] = test system: OATP1B1; design: method as in Li et al., 2019; conditions: ref Li et al., 2019; read-out: half maximum inhibitory concentration (IC50) for OATP1B1; cited from earlier work

Row | Molecule | TransportTC/TransportMC ratio (net transport ratio) [1] | TransportTC/TransportMC ratio (net transport ratio) [2] | TransportTC/TransportMC ratio (net transport ratio) [3] | TransportTC/TransportMC ratio (net transport ratio) [4] | IC50 [5]
1 | O=C(/C=C/c1ccc(O)c(O)c1)O[C@H](Cc1ccc(O)c(O)c1)C(=O)O [Rosmarinic acid, rosmarinic acid] | 1.69 ± 0.71 | 1.42 ± 0.53 | – | – | –
2 | O=C(/C=C/c1ccc(O)c(O)c1/C=C/c1ccc(O)c(O)c1)O[C@H](Cc1ccc(O)c(O)c1)C(=O)O [Salvianolic acid A, salvianolic acid A] | 2.45 ± 0.34 | 1.45 ± 0.27 | 1.19 ± 0.14 | 1.31 ± 0.09 | –
3 | salvianolic acid B | – | – | – | – | 38 µM

Reference: paper PMC9127186, “Molecular Basis Underlying Hepatobiliary and Renal Excretion of Phenolic Acids of Salvia miltiorrhiza Roots (Danshen)” (Frontiers in Pharmacology, 2022)
